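Test compounds were applied to cells in 96-well plates for 48 hours at 5 doses. GI50 = concentration required for 50% inhibition of growth.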 Active and inactive are the calls of the source. Cut-off read from the data, not from the text of the source: active = GI50 up to about 1.1 µM and inactive = higher.
Tests used:
Experiment in all cases: DTP human tumour cell line panel, 48 h
SF-268 = test system: SF-268
DU-145 = test system: DU-145
EKVX = test system: EKVX
RPMI-8226 = test system: RPMI-8226
U-251 = test system: U-251
NCI-H522 = test system: NCI-H522
UACC-257 = test system: UACC-257
SK-OV-3 = test system: SK-OV-3
MDA-MB-231 = test system: MDA-MB-231
OVCAR-8 = test system: OVCAR-8
BT-549 = test system: BT-549
HOP-62 = test system: HOP-62
CCRF-CEM = test system: CCRF-CEM
NCI/ADR-RES = test system: NCI/ADR-RES
ACHN = test system: ACHN
SN12C = test system: SN12C
M14 = test system: M14
CAKI-1 = test system: CAKI-1
SNB-19 = test system: SNB-19
HCC 2998 = test system: HCC 2998

SMILES | GI50 (SF-268) | GI50 (DU-145) | GI50 (EKVX) | GI50 (RPMI-8226) | GI50 (U-251) | GI50 (NCI-H522) | GI50 (UACC-257) | GI50 (SK-OV-3) | GI50 (MDA-MB-231) | GI50 (OVCAR-8) | GI50 (BT-549) | GI50 (HOP-62) | GI50 (CCRF-CEM) | GI50 (NCI/ADR-RES) | GI50 (ACHN) | GI50 (SN12C) | GI50 (M14) | GI50 (CAKI-1) | GI50 (SNB-19) | GI50 (HCC 2998)
COc1ccc(C2=NN(C(=O)c3cccnc3)C(O)(c3cc(F)c(Cl)cc3Cl)C2)cc1OC (stereo not given) | 17.3 µM (inactive) | 27.9 µM (inactive) | 19.6 µM (inactive) | 13.4 µM (inactive) | 13.8 µM (inactive) | 13.8 µM (inactive) | 13.6 µM (inactive) | 26.1 µM (inactive) | 13.9 µM (inactive) | 14.5 µM (inactive) | 19.3 µM (inactive) | 19 µM (inactive) | 11.4 µM (inactive) | 14.8 µM (inactive) | 21.3 µM (inactive) | 15.3 µM (inactive) | 15.8 µM (inactive) | 24.1 µM (inactive) | 29.9 µM (inactive) | –
C1=CN2C[n+]3ccc4ccccc4c3N=C2c2ccccc21 | 2.54 µM (inactive) | 6.62 µM (inactive) | 7.62 µM (inactive) | 2.32 µM (inactive) | 0.356 µM (active) | 0.622 µM (active) | 2.92 µM (inactive) | 12.2 µM (inactive) | 6.08 µM (inactive) | 4.59 µM (inactive) | 7.98 µM (inactive) | 7.57 µM (inactive) | 3.3 µM (inactive) | 48.6 µM (inactive) | 23.3 µM (inactive) | 2.47 µM (inactive) | 2.72 µM (inactive) | 15 µM (inactive) | 2.11 µM (inactive) | –
CC1(C)CCCOc2cccc(c2)OCCCC(C)(C)C1=O | 54.8 µM (inactive) | 85.3 µM (inactive) | 37.3 µM (inactive) | 26.7 µM (inactive) | 35.2 µM (inactive) | 13.3 µM (inactive) | – | 33 µM (inactive) | 44.1 µM (inactive) | – | 29.8 µM (inactive) | 30.6 µM (inactive) | 16.5 µM (inactive) | 38.3 µM (inactive) | 36.8 µM (inactive) | 45.3 µM (inactive) | 33.9 µM (inactive) | 46.2 µM (inactive) | 80.7 µM (inactive) | –
C/C(=C1\C(=O)C(c2ccccc2)N(c2ccccc2)C1=O)c1ccc(Cl)cc1 (stereo not given) | 18.7 µM (inactive) | 18.7 µM (inactive) | 30.8 µM (inactive) | 15.4 µM (inactive) | 15.9 µM (inactive) | 18.2 µM (inactive) | 16.9 µM (inactive) | 16.7 µM (inactive) | 22.3 µM (inactive) | – | 19.8 µM (inactive) | 23.1 µM (inactive) | – | 29.1 µM (inactive) | 19.3 µM (inactive) | 30.7 µM (inactive) | 19.8 µM (inactive) | 24.4 µM (inactive) | 17.4 µM (inactive) | 36.6 µM (inactive)
O=c1[nH]nc(Cc2ccccc2)n1/N=C/c1ccc([N+](=O)[O-])cc1 | > 100 µM (inactive) | > 100 µM (inactive) | > 100 µM (inactive) | > 10 µM (inactive) | > 100 µM (inactive) | > 100 µM (inactive) | > 100 µM (inactive) | – | > 100 µM (inactive) | > 100 µM (inactive) | > 100 µM (inactive) | > 100 µM (inactive) | > 100 µM (inactive) | > 100 µM (inactive) | > 100 µM (inactive) | > 100 µM (inactive) | – | > 100 µM (inactive) | – | > 100 µM (inactive)
COc1cc(C2c3cc4c(cc3OC(Nc3ccccc3)C2C)OCO4)cc(OC)c1O (stereo not given) | 7.48 µM (inactive) | 4.02 µM (inactive) | – | 3.69 µM (inactive) | 3.95 µM (inactive) | 2.35 µM (inactive) | 7.73 µM (inactive) | – | 4.33 µM (inactive) | 4.75 µM (inactive) | 11.5 µM (inactive) | – | – | 2.38 µM (inactive) | – | 4.66 µM (inactive) | 15.5 µM (inactive) | 8.39 µM (inactive) | 10.6 µM (inactive) | 4.12 µM (inactive)

— ChEMBL document CHEMBL1201862, “PubChem BioAssay data set” (2004)
